“And” between values parts separate entries of the source, which are not always exact repeats. Identical values can stand only once.
Assay: xn = mol fraction of the nth substance listed

Nc1ccn([C@@H]2O[C@H](CO)C(O)C2O)c(=O)n1 (stereo not given in full) + O
viscosity [mPa·s], 101.3 kPa
Conditions | 293.15 K | 298.15 K | 303.15 K | 308.15 K | 313.15 K | 318.15 K
x1 = 0.0001861 | – | 0.895 | – | 0.723 | – | 0.6
x1 = 0.000263 | 1.008 | 0.897 | 0.809 | 0.74 | 0.625 | –
x1 = 0.000342 | 1.009 | 0.898 | 0.81 | 0.741 | 0.626 | –
x1 = 0.0003829 | – | 0.899 | – | 0.727 | – | 0.603
x1 = 0.000448 | 1.012 | 0.901 | 0.813 | 0.744 | 0.628 | –
x1 = 0.000537 | 1.014 | 0.903 | 0.815 | 0.746 | 0.63 | –
x1 = 0.0005621 | – | 0.903 | – | 0.73 | – | 0.606
x1 = 0.000632 | 1.016 | 0.905 | 0.817 | 0.748 | 0.632 | –
x1 = 0.000689 | – | 0.906 | – | 0.733 | – | 0.608
x1 = 0.000722 | 1.018 | 0.907 | 0.819 | 0.75 | 0.634 | –
x1 = 0.0007525 | – | 0.907 | – | 0.734 | – | 0.609
x1 = 0.0007845 | – | 0.909 | – | 0.735 | – | 0.609

[Br-].[K+] + O
Conditions | viscosity
293.15 K, 101.3 kPa, x1 = 0.0009 | 0.9993 mPa·s
293.15 K, 101.3 kPa, x1 = 0.0018 | 0.9961 mPa·s
293.15 K, 101.3 kPa, x1 = 0.00893 | 0.9721 mPa·s
293.15 K, 101.3 kPa, x1 = 0.03478 | 0.9229 mPa·s
293.15 K, 101.3 kPa, x1 = 0.05127 | 0.9162 mPa·s
293.15 K, 101.3 kPa, x1 = 0.06722 | 0.9253 mPa·s
298.15 K, 100 kPa, x1 = 0.002229 | 0.8854 mPa·s
298.15 K, 100 kPa, x1 = 0.004266 | 0.8805 mPa·s
298.15 K, 100 kPa, x1 = 0.008299 | 0.8743 mPa·s
298.15 K, 100 kPa, x1 = 0.03864 | 0.8498 mPa·s
298.15 K, 101.3 kPa, x1 = 0.0009 | 0.8884 mPa·s and 0.8888 mPa·s
298.15 K, 101.3 kPa, x1 = 0.001798 | 0.8873 mPa·s
298.15 K, 101.3 kPa, x1 = 0.0018 | 0.8862 mPa·s
298.15 K, 101.3 kPa, x1 = 0.00359 | 0.8842 mPa·s
298.15 K, 101.3 kPa, x1 = 0.005732 | 0.8803 mPa·s
298.15 K, 101.3 kPa, x1 = 0.008927 | 0.8746 mPa·s
298.15 K, 101.3 kPa, x1 = 0.00893 | 0.8692 mPa·s
298.15 K, 101.3 kPa, x1 = 0.01421 | 0.8666 mPa·s
298.15 K, 101.3 kPa, x1 = 0.0177 | 0.8529 mPa·s
298.15 K, 101.3 kPa, x1 = 0.02116 | 0.8588 mPa·s
298.15 K, 101.3 kPa, x1 = 0.03478 | 0.8352 mPa·s
298.15 K, 101.3 kPa, x1 = 0.05127 | 0.8342 mPa·s
303.15 K, 101.3 kPa, x1 = 0.0009 | 0.7962 mPa·s
303.15 K, 101.3 kPa, x1 = 0.0018 | 0.7947 mPa·s
303.15 K, 101.3 kPa, x1 = 0.00893 | 0.7827 mPa·s
303.15 K, 101.3 kPa, x1 = 0.03478 | 0.7609 mPa·s
303.15 K, 101.3 kPa, x1 = 0.05127 | 0.7639 mPa·s
303.15 K, 101.3 kPa, x1 = 0.06722 | 0.7781 mPa·s
308.15 K, 101.3 kPa, x1 = 0.0009 | 0.7187 mPa·s and 0.7188 mPa·s
308.15 K, 101.3 kPa, x1 = 0.001798 | 0.7187 mPa·s
308.15 K, 101.3 kPa, x1 = 0.0018 | 0.7177 mPa·s
308.15 K, 101.3 kPa, x1 = 0.00359 | 0.7178 mPa·s
308.15 K, 101.3 kPa, x1 = 0.005732 | 0.7165 mPa·s
308.15 K, 101.3 kPa, x1 = 0.008927 | 0.7145 mPa·s
308.15 K, 101.3 kPa, x1 = 0.00893 | 0.7095 mPa·s
308.15 K, 101.3 kPa, x1 = 0.01421 | 0.7121 mPa·s
308.15 K, 101.3 kPa, x1 = 0.0177 | 0.7021 mPa·s
308.15 K, 101.3 kPa, x1 = 0.02116 | 0.7104 mPa·s
308.15 K, 101.3 kPa, x1 = 0.03478 | 0.6969 mPa·s
308.15 K, 101.3 kPa, x1 = 0.05127 | 0.7029 mPa·s
308.15 K, 101.3 kPa, x1 = 0.06722 | 0.7189 mPa·s
312.45 K, 100 kPa, x1 = 0.002229 | 0.661 mPa·s
312.85 K, 100 kPa, x1 = 0.01672 | 0.6499 mPa·s
313.55 K, 100 kPa, x1 = 0.03864 | 0.6449 mPa·s
313.85 K, 100 kPa, x1 = 0.004266 | 0.6426 mPa·s
313.95 K, 100 kPa, x1 = 0.008299 | 0.6399 mPa·s
318.15 K, 101.3 kPa, x1 = 0.0009 | 0.5963 mPa·s and 0.5961 mPa·s
318.15 K, 101.3 kPa, x1 = 0.001798 | 0.5966 mPa·s
318.15 K, 101.3 kPa, x1 = 0.0018 | 0.596 mPa·s
318.15 K, 101.3 kPa, x1 = 0.00359 | 0.5969 mPa·s
318.15 K, 101.3 kPa, x1 = 0.005732 | 0.5913 mPa·s
318.15 K, 101.3 kPa, x1 = 0.008927 | 0.5975 mPa·s
318.15 K, 101.3 kPa, x1 = 0.00893 | 0.5928 mPa·s
318.15 K, 101.3 kPa, x1 = 0.01421 | 0.5983 mPa·s
318.15 K, 101.3 kPa, x1 = 0.0177 | 0.5908 mPa·s
318.15 K, 101.3 kPa, x1 = 0.02116 | 0.5998 mPa·s
318.15 K, 101.3 kPa, x1 = 0.03478 | 0.593 mPa·s
318.15 K, 101.3 kPa, x1 = 0.05127 | 0.6036 mPa·s
318.15 K, 101.3 kPa, x1 = 0.06722 | 0.6221 mPa·s
321.85 K, 100 kPa, x1 = 0.002229 | 0.5597 mPa·s
322.75 K, 100 kPa, x1 = 0.01672 | 0.5528 mPa·s
322.95 K, 100 kPa, x1 = 0.004266 | 0.552 mPa·s

Reference: the CheMixHub viscosity set
